In ChEMBL document CHEMBL4308841, “Synthesis, in vitro antiproliferative activity, and kinase inhibitory effects of pyrazole-containing diarylureas and diarylamides” (Eur J Med Chem, 2018):
pIC50: −log10 of the molar value.

Key:
[1] = test system: A498; assay: Growth inhibition of human A498 cells assessed as cell growth at 0.1 uM incubated for 48 hrs by sulforhodamine B assay relative to control; format: functional; conditions: A498, 48 h, read-out: Activity
[2] = test system: U-251; assay: Growth inhibition of human U251 cells assessed as cell growth at 0.01 uM incubated for 48 hrs by sulforhodamine B assay relative to control; format: functional; conditions: U-251, 48 h, read-out: Activity
[3] = test system: ACHN; assay: Growth inhibition of human ACHN cells assessed as cell growth at 100 uM incubated for 48 hrs by sulforhodamine B assay relative to control; format: functional; conditions: read-out: Activity
[4] = test system: SF-539; assay: Growth inhibition of human SF539 cells assessed as cell growth at 0.1 uM incubated for 48 hrs by sulforhodamine B assay relative to control; format: functional; conditions: SF-539, 48 h, read-out: Activity
[5] = test system: NCI-H460; assay: Growth inhibition of human NCI-H460 cells assessed as cell growth at 1 uM incubated for 48 hrs by sulforhodamine B assay relative to control; format: functional; conditions: NCI-H460, 48 h, read-out: Activity
[6] = test system: KM12; assay: Growth inhibition of human KM12 cells assessed as cell growth at 100 uM incubated for 48 hrs by sulforhodamine B assay relative to control; format: functional; conditions: KM12, 48 h, read-out: Activity
[7] = test system: HCT-15; assay: Growth inhibition of human HCT15 cells assessed as cell growth at 0.01 uM incubated for 48 hrs by sulforhodamine B assay relative to control; format: functional; conditions: HCT-15, 48 h, read-out: Activity
[8] = test system: MDA-MB-435; assay: Growth inhibition of human MDA-MB-435 cells assessed as cell growth at 0.1 uM incubated for 48 hrs by sulforhodamine B assay relative to control; format: functional; conditions: MDA-MB-435, 48 h, read-out: Activity
[9] = test system: BT-549; assay: Growth inhibition of human BT549 cells assessed as cell growth at 100 uM incubated for 48 hrs by sulforhodamine B assay relative to control; format: functional; conditions: BT-549, 48 h, read-out: Activity
[10] = test system: SR; assay: Growth inhibition of human SR cells assessed as cell growth at 0.1 uM incubated for 48 hrs by sulforhodamine B assay relative to control; format: functional; conditions: read-out: Activity
[11] = test system: OVCAR-8; assay: Growth inhibition of human OVCAR8 cells incubated for 48 hrs by sulforhodamine B assay; format: functional, cell-based; conditions: OVCAR-8, 48 h
[12] = test system: RPMI-8226; assay: Growth inhibition of human RPMI8226 cells incubated for 48 hrs by sulforhodamine B assay; format: functional, cell-based; conditions: RPMI-8226, 48 h
[13] = test system: NCI/ADR-RES; assay: Growth inhibition of human NCI/ADR-RES cells incubated for 48 hrs by sulforhodamine B assay; format: functional, cell-based
[14] = test system: MOLT-4; assay: Growth inhibition of human MOLT4 cells assessed as cell growth at 0.1 uM incubated for 48 hrs by sulforhodamine B assay relative to control; format: functional; conditions: MOLT-4, 48 h, read-out: Activity
[15] = test system: T47D; assay: Growth inhibition of human T47D cells assessed as cell growth at 100 uM incubated for 48 hrs by sulforhodamine B assay relative to control; format: functional; conditions: read-out: Activity
[16] = test system: UO-31; assay: Growth inhibition of human UO31 cells assessed as cell growth at 0.01 uM incubated for 48 hrs by sulforhodamine B assay relative to control; format: functional; conditions: UO-31, 48 h, read-out: Activity
[17] = test system: SK-MEL-28; assay: Growth inhibition of human SK-MEL-28 cells assessed as cell growth at 0.01 uM incubated for 48 hrs by sulforhodamine B assay relative to control; format: functional; conditions: SK-MEL-28, 48 h, read-out: Activity
[18] = test system: M14; assay: Growth inhibition of human M14 cells assessed as cell growth at 1 uM incubated for 48 hrs by sulforhodamine B assay relative to control; format: functional; conditions: M14, 48 h, read-out: Activity
[19] = test system: U-251; assay: Growth inhibition of human U251 cells assessed as cell growth at 1 uM incubated for 48 hrs by sulforhodamine B assay relative to control; format: functional; conditions: U-251, 48 h, read-out: Activity
[20] = test system: HCT-15; assay: Growth inhibition of human HCT15 cells assessed as cell growth at 1 uM incubated for 48 hrs by sulforhodamine B assay relative to control; format: functional; conditions: HCT-15, 48 h, read-out: Activity
[21] = test system: NCI-H522; assay: Growth inhibition of human NCI-H522 cells incubated for 48 hrs by sulforhodamine B assay; format: functional, cell-based; conditions: NCI-H522, 48 h
[22] = test system: NCI/ADR-RES; assay: Growth inhibition of human NCI/ADR-RES cells assessed as cell growth at 0.01 uM incubated for 48 hrs by sulforhodamine B assay relative to control; format: functional; conditions: read-out: Activity
[23] = test system: Malme-3M; assay: Growth inhibition of human MALME-3M cells incubated for 48 hrs by sulforhodamine B assay; format: functional, cell-based
[24] = test system: BT-549; assay: Growth inhibition of human BT549 cells assessed as cell growth at 1 uM incubated for 48 hrs by sulforhodamine B assay relative to control; format: functional; conditions: BT-549, 48 h, read-out: Activity
[25] = test system: SW-620; assay: Growth inhibition of human SW620 cells assessed as cell growth at 100 uM incubated for 48 hrs by sulforhodamine B assay relative to control; format: functional; conditions: SW-620, 48 h, read-out: Activity
[26] = test system: Hs-578T; assay: Growth inhibition of human Hs578T cells assessed as cell growth at 0.01 uM incubated for 48 hrs by sulforhodamine B assay relative to control; format: functional; conditions: read-out: Activity
[27] = test system: HCT-116; assay: Growth inhibition of human HCT116 cells assessed as cell growth at 1 uM incubated for 48 hrs by sulforhodamine B assay relative to control; format: functional; conditions: HCT-116, 48 h, read-out: Activity
[28] = test system: NCI-H460; assay: Growth inhibition of human NCI-H460 cells assessed as cell growth at 0.01 uM incubated for 48 hrs by sulforhodamine B assay relative to control; format: functional; conditions: NCI-H460, 48 h, read-out: Activity
[29] = test system: CAKI-1; assay: Growth inhibition of human Caki1 cells assessed as cell growth at 100 uM incubated for 48 hrs by sulforhodamine B assay relative to control; format: functional; conditions: CAKI-1, 48 h, read-out: Activity
[30] = test system: SW-620; assay: Growth inhibition of human SW620 cells assessed as cell growth at 1 uM incubated for 48 hrs by sulforhodamine B assay relative to control; format: functional; conditions: SW-620, 48 h, read-out: Activity
[31] = test system: CAKI-1; assay: Growth inhibition of human Caki1 cells assessed as cell growth at 0.01 uM incubated for 48 hrs by sulforhodamine B assay relative to control; format: functional; conditions: CAKI-1, 48 h, read-out: Activity
[32] = test system: HCT-116; assay: Growth inhibition of human HCT116 cells assessed as cell growth at 100 uM incubated for 48 hrs by sulforhodamine B assay relative to control; format: functional; conditions: HCT-116, 48 h, read-out: Activity
[33] = read-out: LC50 (the source's name)
[34] = read-out: pLC50 (the source's name) (converted)

COc1cc(Cl)cc(-c2nn(-c3cccc(NC(=O)c4ccc(N5CCOCC5)c(C(F)(F)F)c4)c3)cc2-c2ccncc2)c1
growth at 0.1 µM [1]: 85% | growth at 0.01 µM [2]: 95% | growth at 100 µM [3]: 28% | growth at 0.1 µM [4]: 85% | growth at 1 µM [5]: 96% | growth at 100 µM [6]: 20% | growth at 0.01 µM [7]: 94% | growth at 0.1 µM [8]: 98% | growth at 100 µM [9]: 49% | growth at 0.1 µM [10]: 91% | GI50 ([11]; read-out: GI50): 6.33 µM | CC50 [11, 33]: > 100 µM | TGI ([11]; read-out: TGI): > 100 µM | GI50 ([11]; read-out: pGI50 (converted)): 6.31 µM | CC50 [11, 34]: > 100 µM | TGI ([11]; read-out: pTGI (converted)): > 100 µM | pIC50 [12]: 5.82 | GI50 ([12]; read-out: GI50): 1.5 µM | CC50 [12, 33]: > 100 µM | TGI ([12]; read-out: TGI): > 100 µM | GI50 ([12]; read-out: pGI50 (converted)): 1.51 µM | CC50 [12, 34]: > 100 µM | TGI ([12]; read-out: pTGI (converted)): > 100 µM | GI50 ([13]; read-out: GI50): 5.17 µM | CC50 [13, 33]: > 100 µM | TGI ([13]; read-out: TGI): > 100 µM | GI50 ([13]; read-out: pGI50 (converted)): 6.17 µM | CC50 [13, 34]: > 100 µM | TGI ([13]; read-out: pTGI (converted)): > 100 µM | growth at 0.1 µM [14]: 90% | growth at 100 µM [15]: 33% | growth at 0.01 µM [16]: 92% | growth at 0.01 µM [17]: 97% | growth at 1 µM [18]: 58% | growth at 1 µM [19]: 78% | growth at 1 µM [20]: 52% | GI50 ([21]; read-out: GI50): 4.72 µM | CC50 [21, 33]: > 100 µM | TGI ([21]; read-out: TGI): > 100 µM | GI50 ([21]; read-out: pGI50 (converted)): 4.68 µM | CC50 [21, 34]: > 100 µM | TGI ([21]; read-out: pTGI (converted)): > 100 µM | growth at 0.01 µM [22]: 96% | GI50 ([23]; read-out: GI50): 2.53 µM | CC50 [23, 33]: > 100 µM | TGI ([23]; read-out: TGI): > 100 µM | GI50 ([23]; read-out: pGI50 (converted)): 28.2 µM | CC50 [23, 34]: > 100 µM | TGI ([23]; read-out: pTGI (converted)): > 100 µM | growth at 1 µM [24]: 59% | growth at 100 µM [25]: 22% | growth at 0.01 µM [26]: 92% | growth at 1 µM [27]: 90% | growth at 0.01 µM [28]: 102% | growth at 100 µM [29]: 14% | growth at 1 µM [30]: 103% | growth at 0.01 µM [31]: 98% | growth at 100 µM [32]: 25%
